The series has as its system Rattus norvegicus. Conditions: for LD50 / LC50: acute.
The mark [1] stands for this setting: reproduction developmental, oral, gavage, Wistar.
The mark [2] stands for this setting: chronic, duration: 16 weeks, oral, diet, Wistar.
Where [3] appears, read: repeat dose other, inhalation, Sprague-Dawley.
Where [4] appears, read: subchronic, duration: 3 months, inhalation, Sprague-Dawley.

This note sets out measurements from EPA's ToxValDB 9.5.

The LD50 is the dose expected to kill half of the subjects tested. Higher therefore signals lower toxicity. As usually defined, the NOAEL is the highest tested level that showed no adverse finding. What is called LOAEL is the lowest tested level that showed an adverse finding.

Several values for one entry are separate records, joined by “and”; a condition that tells them apart may be missing. Equal entries are not always repeated. Structures can show the parent of a compound that is named as a salt.

On to `CC(O)CN(CC(C)O)CC(C)O` (stereo not given) [Triisopropanolamine], for which the LD50 (oral, gavage, Wistar) came to 6500 mg/kg. In addition, the NOAEL by setting is: (chronic, duration: 102 weeks, oral, diet, Wistar) over 1220 mg/kg-day; (developmental, duration: 6 days, oral, gavage, Wistar) at least 1000 mg/kg-day; (reproduction developmental, duration: 6 days, oral, gavage, F, Wistar) 400 mg/kg-day.
On to `CCCCCCCCCCCCOCCOCCOS(=O)(=O)[O-].[Na+]` [Diethylene glycol monolauryl ether sulfate sodium salt], for which the LD50 (oral, gavage, Sprague-Dawley) is over 5000 mg/kg.
As to `CC(C)(C)c1cc(C(C)(C)C)c(O)c(C(C)(C)C)c1` [2,4,6-Tris(tert-butyl)phenol], under “oral, Wistar”, the LD50 is 1610 mg/kg and 1670 mg/kg. This compound also yielded an NOAEL (chronic, duration: 24 months, oral, diet, Wistar) of 2.34 mg/kg-day.
Under “oral”, `CCCCCCCCCCCC#N` [n-Undecyl cyanide] displayed an LD50 of over 3400 mg/kg.
As to `COC(=O)CC(C)(C)C(Cl)CC(Cl)(Cl)Cl` (stereo not given), the LC50 (inhalation, Sprague-Dawley) was over 66.6 mg/m3. This compound also returned an LD50 (oral, Sprague-Dawley) of over 5000 mg/kg.
With `CCCCCCCCCCCOC(=O)c1ccccc1C(=O)OCCCCCCCCCCC` [Diundecyl phthalate], the NOAEL (short-term, duration: 21 days, oral, diet, Fischer 344) was found to be 282 mg/kg-day.
`CC(C)CC(C)OC(=O)/C=C\C(=O)OC(C)CC(C)C` (stereo not given) [Bis(1,3-dimethylbutyl) maleate] came in with an LD50 (oral, gavage, Wistar) of 7460 mg/kg.
In the case of `C=CCC` [1-Butene], the NOAEL reads like this: (reproduction developmental, duration: 28 days, inhalation, Sprague-Dawley, generation: F0) 18400 mg/m3; (reproduction developmental, inhalation, F, Sprague-Dawley) 18400 mg/m3; (reproduction developmental, inhalation, M, Sprague-Dawley) 18400 mg/m3; (reproduction developmental, inhalation, Sprague-Dawley, generation: F0) 18400 mg/m3; (reproduction developmental, inhalation, Sprague-Dawley, generation: F1) 18400 mg/m3.
`CC(=O)C(N=Nc1ccc(-c2ccc(N=NC(C(C)=O)C(=O)Nc3ccccc3)c(Cl)c2)cc1Cl)C(=O)Nc1ccccc1` (stereo not given) [C.I. Pigment Yellow 12]: the NOAEL by setting is: (reproduction developmental, oral, gavage, Wistar, generation: F0) 1000 mg/kg-day; (reproduction developmental, oral, gavage, Wistar, generation: F1) 1000 mg/kg-day.
As for `CSC(C)(C)/C=N/O` [Aldicarb oxime], the LD50 (oral, Wistar) was determined as 809 mg/kg. Under setting [1], this compound had an LOAEL of 25 mg/kg-day and an NOAEL of 5 mg/kg-day.
With `CCCCCCCCCCCCCCCCCC(=O)[O-].[Li+]` [Lithium octadecanoate], the LC50 (oral) is ≥ 5000 mg/kg and ≤ 15000 mg/kg.
Turning to `O=C(OCCOCCOCCOC(=O)c1ccccc1)c1ccccc1` [Ethylenebis(oxyethylene) dibenzoate], the LD50 runs as follows: (dermal, Sprague-Dawley) over 2000 mg/kg; (oral, Sprague-Dawley) 4190 mg/kg and 3540 mg/kg and 4840 mg/kg. In addition, the NOAEL (developmental, duration: 14 days, oral, gavage, Sprague-Dawley) turned out to be 1000 mg/kg-day; the NOAEL (subchronic, duration: 13 weeks, oral, diet, F) amounted to 1000 mg/kg-day; the NOAEL (subchronic, duration: 13 weeks, oral, diet, M) was 1000 mg/kg-day.
In turn, `CCC(C)(C#N)N=NC(C)(C#N)CC` (stereo not given) [2,2'-Azobis(2-methylbutanenitrile)] returned an LD50 (oral, Sprague-Dawley) of 337 mg/kg.
Regarding `CC=C(C)C` [2-Methyl-2-butene], the NOAEL by setting is: (reproduction developmental, duration: 28 days, inhalation, Sprague-Dawley) 1660 mg/m3; (reproduction developmental, inhalation, Sprague-Dawley) 20100 mg/m3.
For `O=C1OCCO1` [1,3-Dioxolan-2-one], the 50% lethal dose (LD50) runs as follows: (dermal, Wistar) over 2000 mg/kg; (oral, Sprague-Dawley) over 5000 mg/kg. The NOAEL (reproduction developmental, duration: 9 days, oral, gavage, F, Sprague-Dawley) is 1500 mg/kg-day and 750 mg/kg-day.
As for `C=CCCC#N` [4-Pentenenitrile], where the note is “inhalation, Sprague-Dawley”, the LC50 is 8460 mg/m3.
For `CC(C)CC(C)OP(=S)([S-])OC(C)CC(C)C.CC(C)CC(C)OP(=S)([S-])OC(C)CC(C)C.[Zn+2]` (stereo not given), under “oral, gavage, Sprague-Dawley”, the LD50 is ≥ 2000 mg/kg and ≤ 5000 mg/kg.
Regarding `Clc1cc(Cl)c(Cl)nc1Cl` [2,3,5,6-Tetrachloropyridine], the LD50 is, setting by setting: (oral) ≥ 1180 mg/kg and ≤ 1410 mg/kg; (oral, gavage) 1000 mg/kg. For the same compound, the NOAEL (chronic, duration: 91 days, oral, diet, Sherman Wistar) worked out at 100 mg/kg-day; the NOAEL (reproduction developmental, duration: 52 days, oral, gavage, F, Sprague-Dawley) came out at 25 mg/kg-day; the NOAEL (reproduction developmental, duration: 52 days, oral, gavage, M, Sprague-Dawley) came out at 150 mg/kg-day; the no-observed-adverse-effect level (NOAEL) (reproduction developmental, duration: 52 days, oral, gavage, Sprague-Dawley) is 150 mg/kg-day; the NOAEL (reproduction developmental, duration: 52 days, oral, gavage, Sprague-Dawley, generation: F1) is 150 mg/kg-day; the NOAEL (subchronic, duration: 52 days, oral, gavage, F, Sprague-Dawley) is 25 mg/kg-day. The NOAEL (subchronic, duration: 52 days, oral, gavage, M, Sprague-Dawley) turned out to be 150 mg/kg-day.
Turning to `O=P(O)(O)c1ccccc1` [Phenylphosphonic acid], the LD50 (dermal, occlusive, Crl:CD(SD) BR) was over 2000 mg/kg.
For the compound `Cc1cccc2[nH]c([S-])nc12.Cc1cccc2[nH]c([S-])nc12.[Zn+2]`, the LD50 reads like this: (dermal, semiocclusive, Sprague-Dawley) over 2000 mg/kg; (oral) 800 mg/kg. For the setting “inhalation, Sprague-Dawley”, the LC50 is over 2.03 µg/mL.
As to `CC(CC(=O)O)CC(C)(C)C` (stereo not given) [3,5,5-Trimethylhexanoic acid], the NOAEL is, setting by setting: (reproduction developmental, oral, diet, F, Sprague-Dawley) 1200 ppm; (reproduction developmental, oral, diet, Sprague-Dawley, generation: F1) 1200 ppm.
For the compound `O=[N+]([O-])c1cccc(Cl)c1` [1-Chloro-3-nitrobenzene], the LD50 (oral, gavage, Sprague-Dawley) amounted to 400 mg/kg.
In the case of `CCCCCCCC/C=C\CCCCCCCC(=O)OC[C@@H](O)[C@H]1OC[C@H](O)[C@H]1O` [Sorbitan, mono-(9Z)-9-octadecenoate], the LD50 is over 39800 mg/kg (oral, gavage) and over 39800 mg/kg (oral, gavage, Wistar). Besides, under setting [2], the “LOAEL (% diet)” value amounted to 2.5. Moreover, the NOAEL under setting [2] was 1700 mg/kg-day and the NOAEL (chronic, oral, diet) worked out at 1450 mg/kg-day. The “NOAEL (% diet)” value (chronic, oral, diet) turned out to be 2.5.
As for `CS` [Methanethiol], the LC50 is 1330 mg/m3 and ≥ 1260 mg/m3 and ≤ 1390 mg/m3 (inhalation, Sprague-Dawley); 3310 mg/m3 and ≥ 2810 mg/m3 and ≤ 3900 mg/m3 (inhalation, WBS/W). The LOAEL reads like this: under setting [3], 112 mg/m3; under setting [4], 112 mg/m3. Besides, the NOAEL by setting is: under setting [3], 33.4 mg/m3; under setting [4], 33.4 mg/m3.
`CCCCCCCCCCCCCCN(C)C` [Dimethyl(tetradecyl)amine]: the LD50 is, setting by setting: (oral, gavage) 2120 mg/kg; (oral, gavage, Wistar) 1320 mg/kg.
With `COC(=O)C1C(C=C(Cl)Cl)C1(C)C` (stereo not given), the LD50 (oral, gavage, Sprague-Dawley) was over 5000 mg/kg. Further, the NOAEL (reproduction developmental, duration: 28 days, oral, gavage, Sprague-Dawley) turned out to be 450 mg/kg-day.
Compound `CC(C)OC(=O)CCCCC(=O)OC(C)C` [Diisopropyl adipate] gave an LD50 (oral) of over 15000 mg/kg.
On to `CCCCCCCCCCCCCCCCN(C)C` [N,N-Dimethyl-1-hexadecanamine], for which the median lethal dose (LD50) (oral, gavage) stood at 1020 mg/kg and the LD50 (oral, gavage, Sprague-Dawley) is over 2000 mg/kg.
`CC(=O)C(=NNc1ccc(-c2ccc(NN=C(C(C)=O)C(=O)Nc3ccc(C)cc3C)c(Cl)c2)cc1Cl)C(=O)Nc1ccc(C)cc1C` [C.I. Pigment Yellow 13] yielded an NOAEL (chronic, oral, gavage) of 500 mg/kg-day.
`c1ccc(Oc2ccccc2)cc1` [Diphenyl oxide] showed an LD50 (oral, gavage, Sprague-Dawley) of 2450 mg/kg. Further, the NOAEL (developmental, duration: 10 days, oral, gavage, Sprague-Dawley) was at least 500 mg/kg-day; the NOAEL (reproduction developmental, duration: 10 days, oral, gavage, F, Sprague-Dawley) was at least 50 mg/kg-day; the NOAEL (subchronic, duration: 13 weeks, oral, diet, Sprague-Dawley) is over 480 mg/kg-day.
Compound `CC(C)C(=O)OCC(C)(C)C(OC(=O)c1ccccc1C(=O)OCc1ccccc1)C(C)C` (stereo not given) yielded an LD50 (oral, gavage, Sprague-Dawley) of over 18500 mg/kg.
Where the note is “oral, gavage, Sprague-Dawley”, `c1ccc(-c2cccc(-c3ccccc3)c2)cc1` [Terphenyl] gave an LC50 of over 5000 mg/kg.
As to `CCCCOP(=O)(O)OCCCC` [Phosphoric acid, dibutyl ester], for the setting “subchronic, oral, gavage, Sprague-Dawley”, the NOAEL was determined as 30 mg/kg-day.
`Fc1ccccc1` [Fluorobenzene]: for the setting “inhalation”, the LC50 was 26900 mg/m3. Moreover, the NOAEL was 0.37 mg/L (short-term, duration: 28 days, inhalation, F, Sprague-Dawley) and 0.37 mg/L (short-term, duration: 28 days, inhalation, M, Sprague-Dawley).
`c1ccc(-c2cccc(-c3ccccc3)c2)cc1` [1,1':3',1''-Terphenyl] had an LD50 (oral, gavage, Sprague-Dawley) of 2400 mg/kg. Besides, the “LOAEL (% diet)” value (short-term, duration: 14 days, oral, diet, Wistar) was determined as 0.2.
For the setting “oral, Wistar”, `Cc1ccc(S(=O)(=O)O)cc1` [4-Methylbenzenesulfonic acid] came in with an LD50 of 1410 mg/kg. Where the note is “short-term, duration: 28 days, oral, Wistar”, this compound came in with an NOAEL of over 500 mg/kg-day.
For the compound `CCCCCCC(C)OC(=O)CCCCC(=O)OC(C)CCCCCC` (stereo not given) [Hexanedioic acid, bis(1-methylheptyl) ester], the LD50 (oral, gavage) was over 64000 mg/kg.
On to `C1=C\CC/C=C\CC/1` [1,5-Cyclooctadiene], for which the LD50 by setting is: (dermal, occlusive, Crl:CD1) over 3520 mg/kg; (oral) 2380 mg/kg. The compound also gave an NOAEL (short-term, duration: 2 weeks, inhalation, M) of 664 mg/m3.
